Results from patent publication US6313170A, “L-threonate ferrous, as well as pharmaceutical composition and use for improving and treating human anemia thereof” (priority 1997, dated 2001).

Legend:
lymphoma cells = details: cited from earlier work
[1] = rat, in vivo, po, 2.5 mg/kg, 72 h
Procedure: Its chemical formula is Fe(C4 H7 O5)2.2H2 O, molecular weight:362.
Animals: Male Wistar rats were supplied by Experimental Animal Center, Tumor Institute of Heilongjian Province with body weight of 140 g-180 g. The iron-low diet contains iron 0.9 mg/kg.
50 rats were randomly divided into 5 groups of [19] 10 rats each. On this basis of administration of iron-low diet, each group of rats was administered respectively by gavage according to the dosage below:
High dosage group: Fe, 5 mg/kg, ferrous L-threonate, 32.32 mg/kg;
Middle dosage group: Fe, 2.5 mg/kg, ferrous L-threonate, 16.16 mg/kg;
Low dosage group: Fe, 1.0 mg/kg, ferrous L-threonate, 6.46 mg/kg;
Positive drug control group (ferrous sulfate): Fe, 2.5 mg/kg, ferrous sulfate, 12.43 mg/kg;
Negative drug control group (iron-low diet): Fe, 0.9 mg/kg (measured value).
After the end of 7 days feeding normal diet period, rats were supplemented with iron-low diet prepared according to AOAC formula for another 7 days. The 1-3 groups were treatment groups and supplemented with ferrous L-threonate 32.32 mg/kg (5 mgFe/kg, high dose group), 16.16 mg/kg (2.5 mg Fe/kg, middle dose group) and 6.46 mg/kg (1.0 mg Fe/kg, low dose group), respectively. The forth, positive drug control group, was provided with ferrous sulfate 12.43 mg/kg (2.5 mg Fe/kg). The fifth was model control group and was offered with iron-low diet (0.9 mg Fe/kg). Each groups were arranged to take drug one time by I.G (gavage) method per day and in the same time were supplemented with deionized water.
The test was sustained three days. Each rat's excrement was collected, dried at temperature 80-90° C., weighed and ground into 40-60 meshes. About 0.5 to 0.6 gram sample was taken and a mixture of nitric acid and perchloric acid at a ratio of 4:1 was added therein until completion of digestion. The constant volume is 10 ml. The iron content of excrement was determined by atomic absorption method and the iron absorptive rate for each rat can be calculated by the formula listed below. [formula]

IDA = details: in vivo; cited from earlier work
Blood-loss Anemia Model = test: Blood-loss anemia model, rats; details: 8.64 mg Fe/kg (middle dosage / positive controls), n=10;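 further: male Wistar rats made anemic by repeated orbital bloodletting, kept on iron-low diet with deionized water while dosed, compared against untreated anemic model and normal-diet control groups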
Procedure: Ferrous gluconate, the positive control drug, yellow-green powder and 11% ferrous content, was purchased from Ganjian Pharmaceutical Company of Jianxi Province. Ferrous fumarate, 6.4% ferrous content, was purchased from the 18th Pharmaceutical Company of Shanghai. All drugs were diluted by distilled water.
7 groups were prepared as hemolytic anemia groups and one group was taken as normal control group supplemented with normal diet and water. The hemolytic anemia model was prepared by subjecting rats to inner canthus bloodletting of right eye through capillary glass tube. The first bloodletting content was 2.0 ml for each rat and in that time the range of hemochrome for rats was from 9.78 to 10.65 g %. Two days later, the second bloodletting (2 ml/rat) was carried out with the hemochrome values of 7.40-7.88 g %. The total bloodletting volume for each rat was 4 ml and was 32.9% in volume of the whole blood circulating the body.
While one hemolytic anemia group and one normal control group were taken as reference groups compared with other groups left. These two groups' rats were killed and the blood parameters were recorded. Other six groups now were randomly divided into three treatment groups of ferrous L-threonate with high, middle and low dosages respectively, two positive drugs control groups of ferrous gluconate and ferrous fumarate and one model group. At the end of 12 days and 18 days experimental periods, 5 and 10 rats of each group were killed correspondingly. During the course of experiment, the variations of hemochrome content were examined with 6 days interval.
While Element ferrous content 8.64 mg/kg as ferrous gluconate or ferrous fumarate was for positive drug control group. The groups for blood-loss anemia were provided iron-low diet and deionized water during the period of the administration of drugs, while the normal animal control group was provided normal diet and deionized water.

Hemolytic Anemia Model = test: Hemolytic anemia model (acetylphenylhydrazine), rats; assay type: in vivo, male Wistar rats; details: 8.64 mg Fe/kg (middle dosage / positive control)
Procedure: 1. […] All drugs were diluted by distilled water.
2. […] Animal diet also was purchased from Beijing Medical University.
(1) Hemolytic Anemia Model: Hemolytic anemia model was prepared for rats by injecting reagent of acetylphenylhydrazine (C8 H10 N2 O, produced by Beijing Biochemical Company) subcutaneously. The drug acetyphenylhydrazine was mixed with physiological saline to get its injection solution of 4% by weight of acetyphenylhydrazine. The solution was injected subcutaneously into each rat with a dosage of 57 μg/g at the beginning of the experiments. The content of blood hemochrome for each rat was examined at 2 days and 4 days later, respectively. When the mean blood hemochrome decreased to about 6.11±0.25 g %, rats were randomly divided into 6 groups of 18 rats each. […] The forth groups was positive drug control groups. The fifth group and the sixth group were designed as model group and normal control group, respectively.

Molecule: O=C(O)[C@H](O)[C@@H](O)CO [Calcium L-threonate]
- uptake of vitamin C by the lymphoma cells (lymphoma cells): can improve uptake of vitamin C by the lymphoma cells

Molecule: ferrous sulfate [reference compound]
- Absorptivity [1]: 42.00 ± 1.02%
- side effects (IDA): limited because of its side effects

Molecule: O=C([O-])/C=C/C(=O)[O-].[Fe+2] [Ferrous fumarate, reference compound]
- Blood hemochrome content (Blood-loss Anemia Model; 6 days after treatment): 7.80 ± 0.24
- Blood hemochrome content (Blood-loss Anemia Model; 12 days after treatment): 10.12 ± 0.52
- GPC (blood granulophilocyte) (Blood-loss Anemia Model; 12 days): 12.66%
- RBC (Blood-loss Anemia Model; 12 days): 4.2e+12 L⁻¹
- Blood hemochrome content (Blood-loss Anemia Model; 18 days after treatment): 11.84 ± 0.45
- GPC (blood granulophilocyte) (Blood-loss Anemia Model; 18 days): 9.04%
- RBC (Blood-loss Anemia Model; 18 days): 5.14e+12 L⁻¹
- Blood hemochrome content (Blood-loss Anemia Model; before treatment): 7.43 ± 0.85

Molecule: Ferrous gluconate [reference compound]
- Blood hemochrome content (Blood-loss Anemia Model; 6 days after treatment): 7.95 ± 0.30
- Blood hemochrome content (Blood-loss Anemia Model; 12 days after treatment): 10.50 ± 0.61
- GPC (blood granulophilocyte) (Blood-loss Anemia Model; 12 days): 12.66%
- RBC (Blood-loss Anemia Model; 12 days): 4.488e+12 L⁻¹
- Blood hemochrome content (Blood-loss Anemia Model; 18 days after treatment): 11.80 ± 0.63
- GPC (blood granulophilocyte) (Blood-loss Anemia Model; 18 days): 9.04%
- RBC (Blood-loss Anemia Model; 18 days): 5.14e+12 L⁻¹
- Blood hemochrome content (Blood-loss Anemia Model; before treatment): 7.50 ± 0.76
- Iron content of whole blood (Hemolytic Anemia Model): 286.04 ± 26.797 µg/mL
- Serum ferritin (SF) (Hemolytic Anemia Model): 20.14 ± 2.83 ng/mL
- hemoglobin content (Hemolytic Anemia Model; after anemia (before treatment)): 6.57 g %
- hemoglobin content (Hemolytic Anemia Model; before anemia (baseline)): 15.34 g %
- hemoglobin content (Hemolytic Anemia Model; one week after treatment): 10.62 g %
- hemoglobin content (Hemolytic Anemia Model; two weeks after treatment): 12.65 g %
